One experiment has as its target T1, Jarid1B (Homo sapiens, UniProt Q9UGL1).
T1 construct: purchased BPS Bioscience (or custom made by MolecularThroughput) 50121
T1 sequence (Q9UGL1 2-751): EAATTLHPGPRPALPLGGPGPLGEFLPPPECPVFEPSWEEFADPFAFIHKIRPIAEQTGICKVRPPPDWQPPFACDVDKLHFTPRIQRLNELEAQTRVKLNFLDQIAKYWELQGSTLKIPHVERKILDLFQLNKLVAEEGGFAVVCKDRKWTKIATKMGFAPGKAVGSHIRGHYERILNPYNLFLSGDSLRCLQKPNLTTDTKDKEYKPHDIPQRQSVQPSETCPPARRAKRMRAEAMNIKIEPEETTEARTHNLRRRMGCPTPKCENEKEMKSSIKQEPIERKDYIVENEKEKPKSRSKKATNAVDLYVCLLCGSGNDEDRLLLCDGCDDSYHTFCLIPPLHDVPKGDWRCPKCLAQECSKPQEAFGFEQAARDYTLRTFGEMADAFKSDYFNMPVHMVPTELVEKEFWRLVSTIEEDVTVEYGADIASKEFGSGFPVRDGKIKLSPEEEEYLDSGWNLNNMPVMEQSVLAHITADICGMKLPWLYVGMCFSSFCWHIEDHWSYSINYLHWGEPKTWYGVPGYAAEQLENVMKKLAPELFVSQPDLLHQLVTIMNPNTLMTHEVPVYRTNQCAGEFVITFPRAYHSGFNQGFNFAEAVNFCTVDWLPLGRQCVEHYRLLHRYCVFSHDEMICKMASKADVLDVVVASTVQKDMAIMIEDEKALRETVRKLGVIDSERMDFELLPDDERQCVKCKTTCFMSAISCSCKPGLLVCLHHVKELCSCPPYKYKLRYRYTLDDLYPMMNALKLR
Description: Jarid1B in vitro enzyme inhibition assay (TR-FRET). Type of experiment: biochemical. Conditions: Table 5; 0.8 nM Jarid1B, H3K4me3-biotin labeled peptide; read-out: JARID1B IC5. An outline of the steps: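 Baculovirus-expressed Jarid1B (AA 2-751) at 0.8 nM with 300 nM biotin-H3K4me3 peptide and 2 µM alpha-ketoglutarate in HEPES pH 7.3 with Fe(II), ascorbate and TCEP, 30 minutes at room temperature. EDTA-stopped; H3K4me1-2 product detected by TR-FRET (665/615 ratio); IC50 from 11-point dilutions.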
(In general: Time-resolved FRET reads energy transfer from a long-lived donor to a nearby acceptor.)

The target of another experiment is T2, JMJD2C (Homo sapiens, UniProt Q9H3R0).
T2 construct: purchased BPS Bioscience 50105
T2 sequence (Q9H3R0 2-372): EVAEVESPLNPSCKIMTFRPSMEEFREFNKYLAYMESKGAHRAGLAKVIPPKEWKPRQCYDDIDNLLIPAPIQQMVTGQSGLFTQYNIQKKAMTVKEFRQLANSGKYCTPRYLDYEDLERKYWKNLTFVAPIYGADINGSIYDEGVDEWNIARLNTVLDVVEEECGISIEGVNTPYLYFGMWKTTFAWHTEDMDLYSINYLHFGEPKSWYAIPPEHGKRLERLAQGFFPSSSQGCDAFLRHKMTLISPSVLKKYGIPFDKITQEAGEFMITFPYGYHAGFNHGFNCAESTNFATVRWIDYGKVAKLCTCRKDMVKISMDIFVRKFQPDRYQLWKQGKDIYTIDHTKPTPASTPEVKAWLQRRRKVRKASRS
Description: JMJD2C in vitro enzyme inhibition assay (TR-FRET). In kind it is biochemical. Conditions: Table 5; 0.3 nM JMJD2C, H3K9me3-biotin labeled peptide. An outline of the steps: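 Baculovirus-expressed JMJD2C (AA 2-372), 0.3 nM, with 300 nM H3K9me3-biotin peptide and 2 µM alpha-ketoglutarate in pH 7.3 HEPES buffer containing ascorbate and Fe(II), 11-point inhibitor series, 30 min at room temperature. EDTA-stopped; H3K9me2 product detected by TR-FRET (Eu-antibody/streptavidin-APC), 665/615 ratio fitted for IC50.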

The values that follow come from patent EP3436445B1, “HISTONE DEMETHYLASE INHIBITORS” (Celgene Quanticel Research, Inc., priority 2016, dated 2017).

Some results are limits rather than exact numbers.

Consider `COc1ccc2c(c1)C(Cn1cnc(-c3cc(-c4nn[nH]c4C(F)(F)F)ccn3)c1)CCC2` (stereo not shown) [Example 106, 2-{1-[(7-methoxy-1,2,3,4-tetrahydronaphthalen-1-yl)methyl]-1H-imidazol-4-yl}-4-[5-(trifluoromethyl)-1H-1,2,3-triazol-4-yl]pyridine], for which the IC50 is at most 0.1 µM on Jarid1B and above 10 µM at JMJD2C.

On to `COc1cccc2c1C(Cn1cnc(-c3cc(-c4nn[nH]c4C(F)(F)F)ccn3)c1)CCC2` (stereo not shown) [Example 107, 2-{1-[(8-methoxy-1,2,3,4-tetrahydronaphthalen-1-yl)methyl]-1H-imidazol-4-yl}-4-[5-(trifluoromethyl)-1H-1,2,3-triazol-4-yl]pyridine], for which the IC50 was 0.1 to 1 µM at Jarid1B and above 10 µM at JMJD2C.
